# In US20070213226A1, “AGROCHEMICAL COMPOSITIONS COMPRISING ALKYLENEDIOL-MODIFIED POLYSILOXANES” (priority 2006, published 2007):
# Experiments:
# [1] = system: Senna tora (sickle senna); assay: Field trial, herbicide control of Senna tora, with and without simulated rain; type: in vivo; conditions: 30 days after treatment, 720 g ae/ha
# From the text: Statistical calculations were done on the means.
# [2] = system: Poa pratensis (meadowgrass or Kentucky blue grass); assay: Greenhouse trial, sulfonylurea herbicides for grass weed control; type: in vivo; conditions: mean of 3 replicates ± SD
# Protocol: Greenhouse trials were carried out where the effect of ADS-1 on the efficacy of the sulfonylurea herbicides nicosulfuron (4.2% SC Motivell from BASF) and rimsulfuron (25% WG Cato from Dupont) for grass weed control was tested. Seed of the grass Poa pratensis (meadowgrass or Kentucky blue grass) was densely sown in pots and grown for 6 weeks until reaching a height of about 25 cm. The herbicides were tank mixed with the adjuvant ADS-1 at doses given also in the table. […] Researchers trained in the art have knowledge about such technology, and about the method of assessment.
structure (smiles),measurement,setting,value
"O=C(O)CNCP(=O)(O)O [Glyphosate, glyphosate]",Control (%) of Senna tora,[1]; with 4 mm rain aftertreatment,75.0 d %
same,Control (%) of Senna tora,[1]; without rain aftertreatment,96.0 a %
"COc1cc(OC)nc(NC(=O)NS(=O)(=O)c2ncccc2C(=O)N(C)C)n1 [Nicosulfuron, nicosulfuron]",% Control,"[2]; Table 9, dose/ha 25 ml Motivell",87 ± 3%
"CCS(=O)(=O)c1cccnc1S(=O)(=O)NC(=O)Nc1nc(OC)cc(OC)n1 [Rimsulfuron, rimsulfuron]",% Control,"[2]; Table 10, dose/ha 10 g Cato",43 ± 6%
